Consider 7 compounds from patent US20250057961A1, “BLOOD-BRAIN BARRIER PENETRATING DRUG DELIVERY SYSTEM USING SIALYLLACTOSE” (GENECHEM INC., priority 2021, published 2025).

Entries after “also recorded” stand apart in the source; their conditions may differ. Read-outs that look alike come from different tables or passages of the source.

A short description of data set [1]: Blood-brain barrier penetration experiment: brain fluorescence of Cy5.5-attached substances (IVIS spectrum CT, in vivo and extracted brain). Conditions: for brain penetration (fluorescence signal in the brain): Cy5.5-attached substance, into the veins, up to 24 hours, FIGS. 1-3.
Procedure: (§1) First, the fluorescent substance Cy5.5 (Genechem, Cat no. GCCD0064) was attached to each of lactose, 2,3-sialyllactose (GCB100) and 2,6-sialyllactose (GCB200), and each substance was dissolved and diluted in 10% DMSO, thus preparing samples (final DMSO concentration is approximately 2% of the total volume). After administering each sample at 1 mol/kg into the veins of BALB/c nude mice, the fluorescence signals in the brains of the nude mice were measured at different time points (1, 2, 4, 6, 8, and 24 hours) using the IVIS spectrum CT (Perkin Elmer).
(§2) Next, the fluorescent substance Cy5.5 (Genechem, Cat no. GCCD0064) was attached to each of sialic acid, 2,3-sialyllactose (GCB100) and 2,6-sialyllactose (GCB200), and each substance was dissolved and diluted in 10% DMSO, thus preparing samples (final DMSO concentration is approximately 2% of the total volume). After administering each sample at 1 mol/kg into the veins of BALB/c nude mice, the fluorescence signals in the brains of the nude mice were measured at different time points (10 min, 30 min, 1, 2, 4, 6, 8, and 24 hours) using the IVIS spectrum CT (Perkin Elmer). 24 hours after administration, the nude mice were perfused with saline solution, the brains were extracted, and fluorescence present in the brains was measured.
(§3) The experiment was conducted in the same manner as the above-described experiment on blood-brain barrier penetration of sialyllactose.
(§4) Here, Cy5.5 alone and gemcitabine attached to only Cy5.5 were used as controls. First, each material was dissolved and diluted in 10% DMSO, thus preparing samples (final DMSO concentration is approximately 2% of the total volume). After administering each sample at 1 mol/kg into the veins of BALB/c nude mice, the fluorescence signals in the brains of the nude mice were measured at different time points (10 min, 30 min, 1, 2, 4, 6, 8, and 24 hours) using the IVIS spectrum CT (Perkin Elmer). 24 hours after administration, the nude mice were perfused with saline solution, the brains were extracted, and fluorescence present in the brains was measured.
Data set [2] in a line: Brain tissue penetration and substance dissociation (LC-MS/MS of tissue homogenate supernatant). The format is in vivo. As to the method: To examine the distribution and dissociation of sialyllactose-conjugated methotrexate in tissues, GCB017 was administered and the presence of GCB017 and its dissociates (linker-6′SL (L-6′SL) and linker) in the brain and pancreas was checked. Specifically, GCB017 was dissolved and diluted in 10% DMSO, thus preparing a sample (final DMSO concentration was approximately 2% of the total volume). The sample was administered intravenously (IV) at a dose of 80 mg/kg or administered orally (PO) at a dose of 80 mg/kg. Then, at different time points (0, 0.5, 2, and 4 hours), the animals were anesthetized, heart blood was collected, saline solution was perfused, and the brain and pancreas were extracted. Each of the extracted tissues was homogenized in 50 mM Tris-HCl buffer (pH 7.5) at a ratio of 1:5 and centrifuged at 3,000 rpm and 4° C. for 20 minutes, and the supernatant was collected and subjected to mass spectrometry (SCIEX Triple Quad 3500 LC-MS/MS system).
The sample was administered intravenously (IV) at a dose of 80 mg/kg or administered orally (PO) at a dose of 246 mg/kg. Then, at different time points (0, 0.5, 2, and 4 hours), the animals were anesthetized, heart blood was collected, saline solution was perfused, and the brain and pancreas were extracted. Each of the extracted tissues was homogenized in 50 mM Tris-HCl buffer (pH 7.5) at a ratio of 1:5 and centrifuged at 3,000 rpm and 4° C. for 20 minutes, and the supernatant was collected and subjected to mass spectrometry (SCIEX Triple Quad 3500 LC-MS/MS system).

The test system of data set [3] is U-87MG. As to the kind of experiment: Anticancer efficacy in mouse brain cancer model (luciferase-expressing U-87MG transplanted into brain, optical imaging). The format is in vivo. As to conditions: intravenously twice a week, 8 times for 4 weeks; GCB017 22 mol/kg; days 20, 24, 27; FIG. 13. As to the method: The brain cancer model was produced by transplanting U-87MG, a brain cancer cell line that expresses luciferase. For transplantation into the brain, each animal was anesthetized by isoflurane injection and fixed on a stereotaxic arm, and the head skin was incised vertically by about 1 cm and the injection site was exposed using a micro drill. The cell line was transferred into a 25-μl Hamilton syringe equipped with a 31-gauge needle, and then the cell line was transplanted at a rate of 1 i/min to an area 1 mm anterior, 2 mm lateral, and 3 mm deep based on bregma. After cell line transplantation, in order to prevent reflux and ensure good absorption, the syringe was maintained for about 10 minutes and separated, and the incision was sutured and disinfected. After confirming that the anesthesia had worn off, the animals were reared normally. Starting 1 week after model production, each of methotrexate and GCB017 was administered intravenously twice a week for a total of 8 times for 4 weeks, and the size of the brain tumor was measured by optical imaging (FIG. 13). […] In combination with the results of Examples 3-2 and 3-3 above, it is believed that the sialyllactose-methotrexate conjugate according to the present invention has an improved BBB penetration ability compared to methotrexate and inhibits tumor formation and growth.

For data set [4] the following is noted: mouse, in vivo.
Procedure: as §1, §2, §3, §4
The test system of data set [5] is BxPC-3. As to conditions: 5, 10, 20 and 40 nM, 72 hours, FIG. 16A.
The test system of data set [6] is PARP. As to conditions: BxPC-3, 5-40 nM, 72 hours, FIG. 16B.
The subject of data set [7] is Caspase-3. Conditions: BxPC-3, 5-40 nM, 72 hours, FIG. 16B.

On to 2,3-sialyllactose [GCB100], for which the “brain penetration (fluorescence signal in the brain)” value in data set [1] was “well delivered to the brain, compared to lactose-bound Cy5.5”.
On the same count and under the same terms, with 2,6-sialyllactose [GCB200] the entry was “well delivered to the brain, compared to lactose-bound Cy5.5; also recorded: the effect of 2,6-sialyllactose was higher than that of 2,3-sialyllactose”.
As for `CCN1\C(=C/C=C/C=C/C2=[N+](CCCCCC(=O)O)c3ccc4c(S(=O)(=O)O)cc(S(=O)(=O)O)cc4c3C2(C)C)C(C)(C)c2c1ccc1c(S(=O)(=O)[O-])cc(S(=O)(=O)O)cc21` [Cy5.5, reference compound], the “brain penetration (fluorescence signal in the brain)” value in data set [1] is listed as “barely penetrated the blood-brain barrier”. Also, the “brain penetration (fluorescence signal in the brain) of sialyllactose-conjugated dopamine” value in data set [1] (Cy5.5-attached, controls Cy5.5-dopamine or Cy5.5, FIGS. 5, 6, 8, 9) is reported as “barely detected in the brain”.
With `CC(=O)N[C@H]1[C@H]([C@H](O)[C@H](O)CO)O[C@@](OC[C@H]2O[C@@H](O[C@H]3[C@H](O)[C@@H](O)[C@H](OCCCCCCNC(=O)CC[C@H](NC(=O)c4ccc(N(C)Cc5cnc6nc(N)nc(N)c6n5)cc4)C(=O)O)O[C@@H]3CO)[C@H](O)[C@@H](O)[C@H]2O)(C(=O)O)C[C@@H]1O` [GCB017], in data set [2] (80 mg/kg IV or 80 mg/kg PO), the “presence of GCB017 and its dissociates in brain tissue” value is on record as “detected in the brain tissue not only when GCB017 was administered intravenously but also when administered orally”. In data set [2] (brain, iv, 80 mg/kg, GCB017 80 mg/kg IV, 2 h, single animals), this compound came in with a level at 2 h of 52.7 ng/mL. In data set [2] (brain, po, 80 mg/kg, GCB017 80 mg/kg PO, 4 h, single animals), this compound came in with a level at 4 h of 30.3 ng/mL. Further, the “size of the brain tumor” value in data set [3] is “tumor formation was delayed and the tumor size was also controlled”. For the same compound, the “fluorescence signal in the brain of sialyllactose-conjugated methotrexate” value in data set [4] is reported as “a strong fluorescence signal appeared”.
In the case of `CN(Cc1cnc2nc(N)nc(N)c2n1)c1ccc(C(=O)N[C@@H](CCC(=O)O)C(=O)O)cc1` [methotrexate, reference compound], the “size of the brain tumor” value in data set [3] is on record as “the tumor size also tended to increase gradually starting from day 20”. The “fluorescence signal in the brain of sialyllactose-conjugated methotrexate” value in data set [1] (Cy5.5-attached, time-dependent and extracted brain at 24 hours, FIGS. 11, 12) is “almost no fluorescence signal appeared in the brain”.
As to `CC(=O)N[C@H]1[C@H]([C@H](O)[C@H](O)CO)OC(O)(C(=O)O)C[C@@H]1O` (stereo partly drawn) [sialic acid, reference compound], the “brain penetration (fluorescence signal in the brain)” value in data set [4] is on record as “brain penetration remained at a similar level”.
On to “gemcitabine-succinate-aminohexyl-6′SL [GCB034]”, for which, in data set [5], the “cell viability (anticancer effect)” value was “induce cancer cell death at all treatment concentrations, but also exhibited a higher anticancer effect than gemcitabine”. In addition, in data set [6], the “decrease in the pro-form of PARP” value is “significant in a concentration-dependent manner”. The “increase in Caspase-3 cleavage” value in data set [7] is recorded as “significant in a concentration-dependent manner”.
